Source: patent US20080318792A1, “Extension of pollination period” (priority 2007, published 2008)

Tests used:
Assay type in all cases: in vivo
[1] = tested on: Hughes 1883 hybrid corn seed; assay: Soil germination/emergence of corn seed treated with different forms of ABA in slurry; details: for delay: treatments with ABA vs control; for Final emergence / QR / T50: 25 g/cwt as free acid
Procedure: Three forms of ABA were evaluated in this experiment 1) free acid, 2) ammonium salt, and 3) sodium salt. The cation is referred to as the “counter-ion” below. […] The treatments were made up in 3 ml samples of experimental aqueous seed treatment slurry. All of the seed treatment slurry samples contained CF-Clear film-forming agent and Colorcoat Red (Becker Underwood), each at 1 oz/cwt, and 0.167 oz/cwt Maxim XL fungicide (Syngenta). The slurry application volume was 20 oz/cwt (cwt=100 lbs of seed).
One hundred gram samples of Hughes 1883 hybrid corn seed were treated with the experimental slurries using a Hege 11 seed treater with a six-inch bowl.
The seed was planted in plastic boxes containing 1 kg of typical agricultural silt loam. Fifty seeds were planted 3 cm deep in each plastic box, and the soil in the box was adjusted to 21% soil moisture (wet-weight basis). Two replications of the experiment were incubated under constant light in a 25° C. chamber and two replications incubated under constant light in an 18° C. chamber. The boxes were watered up to the correct weight daily, and checked for emergence. Daily counts of seedlings were continued until emergence ceased. The final count of emerged seedlings was expressed as a percentage of the 50 seeds planted (GERM).
The daily counts were converted to proportions of the final germination of the box, and a Gompertz curve was fitted to the data from each box using SAS Proc NLIN. From the parameters of the model, median germination time (T50) and quartile range (QR) were estimated for each box. Analysis of variance was performed and means calculated for each of the three responses (GERM, T50, QR).

[2] = tested on: corn seed lot "Hughes High" (commercial hybrid); assay: Dose-response of corn soil emergence to ABA seed treatment in calendar and thermal time
Excerpt: Because corn germination and phenology is driven by heat, the corn seed industry uses thermal time (Growing-Degree-Days, or GDD) rather than calendar time to measure and predict flowering. The standard formula for calculating the GDD contribution from one calendar day for corn is: where “Max temp” is either the high temperature for the day or 86, whichever is lower, and “Min temp” is either the low temperature for the day in F or 50, whichever is higher. In growth chambers at constant temperature the calculation is trivial. For example, in our nominally 25° C. chamber, the soil temperature is actually about 26.1° C. (79 F) due to the heat contribution of the light. This time corresponds to 29 GDD. […] The purpose of this experiment was to evaluate the dose response of corn seed emergence after seed treatment with ABA in terms of thermal time. ABA was applied at 0, 1, 2, 3, 4, 5, 10, 15, 20 and 25 g/cwt as the free acid in experimental seed treatment slurries as described under Example 1. The seed lot was designated as “Hughes High” and was a commercial hybrid. The seed was planted in soil in plastic boxes as described under Example 2, and incubated at 25° C. and 18° C. as described under Example 2. Emergence was counted every 1-2 days and the data reduced as described under Example 2. The daily heat unit contribution was calculated for the two chambers, and the responses examined in cumulative thermal time as well as calendar time.

[3] = tested on: sweet corn seed (cv. Silver Queen); assay: Germination of sweet corn seed on moist blotters at 15° C. after seed treatment; details: blotters 15° C.; for Coleoptile protrusion CGERM / Radicle protrusion RGERM: maximum by day 27
Procedure: ABA acid and three analogs were dissolved in ethanol to produce the desired doses. […] Aliquotes (250 μl) of ethanol solutions of the agents were added to 10 g samples of the seed and the seeds were agitated and dried overnight. Germination tests were conducted on moist blotters at 15° C. in petri dishes. Four replications of 10 seeds each were performed.
Radicle and coleoptile protrusion were counted approximately daily for 27 days. The maximum radical protrusion (RGERM) and maximum coleoptile protrusion (CGERM) were expressed as percentages from each dish. The daily counts were expressed as proportions of the protrusion maxima from each dish, and Gompertz curves were fitted to the protrusion data using SAS Proc NLIN. From the parameters of the models, median time to radicle protrusion (RT50), and median-time-to-coleoptile protrusion (CT50) were estimated for each dish. Analysis of variance was performed and means calculated for each of the four responses (RGERM, CGERM, RT50 and CT50).

[4] = ABA free acid 20 g/cwt, 25° C. soil test

Q: What does the source list for `CC1=CC(=O)CC(C)(C)[C@@]1(O)/C=C/C(C)=C\C(=O)O` [ABA, S-(+)-abscisic acid]?
A: delay as a fraction of the germination time of the control at the same temperature ([1]; 18 and 25° C.): roughly doubling the time to emergence; delay ([1]; 18° C.): 5.8 days; Final emergence ([1]; soil 18° C.): 97%; QR ([1]; soil 18° C.): 2.96 days; T50 ([1]; soil 18° C.): 11.4 days; Final emergence ([1]; soil 25° C.): 96%; QR ([1]; soil 25° C.): 1.32 days; T50 ([1]; soil 25° C.): 7.7 days; delay ([1]; 25° C.): 4.4 days; median-time-to-germination ([1]; regardless of counter-ion, 18 and 25° C., p<0.0001): increased; Quartile range ([1]; regardless of counter-ion, 18 and 25° C., p<0.0002): increased; effect on emergence of corn seedlings ([2]; ABA free acid 1-25 g/cwt, 18 and 25° C.): delayed emergence progressively as the dose was increased; Emergence ([2]; ABA free acid 1 g/cwt, 18° C. soil test): 94.2%; Emergence ([2]; ABA free acid 1 g/cwt, 25° C. soil test): 97.1%; Emergence ([2]; ABA free acid 2 g/cwt, 18° C. soil test): 91.2%; Emergence ([2]; ABA free acid 2 g/cwt, 25° C. soil test): 95.5%; Emergence ([2]; ABA free acid 3 g/cwt, 18° C. soil test): 94.0%; Emergence ([2]; ABA free acid 3 g/cwt, 25° C. soil test): 92.1%; Emergence ([2]; ABA free acid 4 g/cwt, 18° C. soil test): 89.2%; Emergence ([2]; ABA free acid 4 g/cwt, 25° C. soil test): 96.3%; Emergence ([2]; ABA free acid 5 g/cwt, 18° C. soil test): 92.0%; Emergence ([2]; ABA free acid 5 g/cwt, 25° C. soil test): 95.0%; Emergence ([2]; ABA free acid 10 g/cwt, 18° C. soil test): 94.0%; Emergence ([2]; ABA free acid 10 g/cwt, 25° C. soil test): 89.0%; Emergence ([2]; ABA free acid 15 g/cwt, 18° C. soil test): 92.1%; Emergence ([2]; ABA free acid 15 g/cwt, 25° C. soil test): 96.3%; Emergence ([2]; ABA free acid 20 g/cwt, 18° C. soil test): 90.1%; Emergence [2, 4]: 95.0%; delay [2, 4]: 3.4 days; Emergence ([2]; ABA free acid 25 g/cwt, 18° C. soil test): 88.1%; Emergence ([2]; ABA free acid 25 g/cwt, 25° C. soil test): 97.1%; Coleoptile protrusion CT50 ([3]; dose 10 ppm): 9.70 days; Radicle protrusion RT50 ([3]; dose 10 ppm): 5.99 days; Coleoptile protrusion CGERM ([3]; dose 10 ppm): 80.0%; Radicle protrusion RGERM ([3]; dose 10 ppm): 87.5%; Coleoptile protrusion CT50 ([3]; dose 100 ppm): 12.80 days; Radicle protrusion RT50 ([3]; dose 100 ppm): 7.28 days; Coleoptile protrusion CGERM ([3]; dose 100 ppm): 65.0%; Radicle protrusion RGERM ([3]; dose 100 ppm): 77.5%; Coleoptile protrusion CT50 ([3]; dose 1000 ppm): 18.44 days; Radicle protrusion RT50 ([3]; dose 1000 ppm): 8.58 days; Coleoptile protrusion CGERM ([3]; dose 1000 ppm): 22.5%; Radicle protrusion RGERM ([3]; dose 1000 ppm): 85.0%
